Measured values reported in patent US11932589B2, “Hydrofluoroolefins and methods of using same” (3M INNOVATIVE PROPERTIES COMPANY, priority 2019, dated 2024).

Legend:
Type in all cases: physicochemical
[1] = Largest Soluble Hydrocarbon (LSH) test; details: hydrofluoroolefin:hydrocarbon about 1:1 to 1:2 by weight, longest hydrocarbon compatible without haze
Description: Largest Soluble Hydrocarbon (LSH): The LSH of each hydrofluoroolefin compound was determined by mixing the compound with hydrocarbons of varying molecular weight (CnH2n+2, where n=9 to 24) in a hydrofluoroolefin:hydrocarbon ratio of about 1:1 to 1:2 by weight at room temperature (25° C.) and at 50° C. […] A larger value of n is interpreted herein to indicate a greater ability of the hydrofluoroolefin to clean hydrocarbons.

[2] = Flash point, small scale closed-cup apparatus (ASTM D-3278-96 e-1); details: closed-cup ASTM method; no flash point = non-flammable
Source text: The acetate was thermally decomposed and the title product separated by fractional distillation. The structure was verified by GC-MS and NMR.

[3] = Open pan exposure to direct flame

| Compound | LSH (n in CnH2n+2) ([1]; 25° C.) | LSH (n in CnH2n+2) ([1]; 50° C.) | Flash point [2] | Burning in an open pan upon exposure to direct flame [3] |
| --- | --- | --- | --- | --- |
| C=CC(F)(C(F)C(F)(F)F)C(F)(F)F (stereo not drawn) [Example 1, 3,4,5,5,5-pentafluoro-3-(trifluoromethyl)pent-1-ene] | 13 | 14 | no flash point |  |
| C=C(C)C1C(F)C(F)(F)C(F)(F)C1(F)F (stereo not drawn) [Example 4, 1,1,2,2,3,3,4-heptafluoro-5-isopropenyl-cyclopentane] | 17 | 21 |  | not observed to burn |
